Measurements taken from patent publication US4886791A, “Soluble derivatives of silybin, a method of preparing them, and pharmaceutical compositions containing them” (priority 1987, dated 1989).
pIC50: −log10 of the molar value. Structures can show the parent of a compound that is named as a salt. Where two headings read alike, the source gives them in different places.

How the values were obtained:
[1] = tested on: liver poisoning by praseodymium; assay: Antihepatotoxic activity, praseodymium test on the rat (oral administration); type: in vivo
Text: (§1) In order to test its pharmacological activity, compound (Ia) has been administered intravenously and orally in liver poisoning tests, such as the praseodymium poisoning test on the rat and the phalloidine poisoning test on the mouse, both tests being widely described in the literature for use in studying the antihepatotoxic effect of silymarin and silybin (Vogel, in "Studies in Organic Chemistry, Vol. 11, Flavonoids and Bioflavonoids, page 461, Elsevier 1982).

[2] = Anti-radical activity in vitro, free radical scavenging (DPPH method); details: for IC50 / pIC50: DPPH method; for IC50: corresponds to μM silybin, read-out: IC50, corresponding silybin concentration; for pIC50: read-out: IC50 (confidence limits p = 0.95)
Protocol: The anti-radical activity of compound Ia was measured "in vitro" by testing the disappearance of the free 1,1-diphenyl-2-picrylhydrazyl (DPPH) radical (J. Pincemail et al., Stud. Org. Chem. 23, 423, 1985).

[3] = tested on: mice subjected to hypobaric anoxia; assay: Hypobaric anoxia: protective effect on survival time of mice subjected to hypoxia (i.p.); type: in vivo, mouse; details: for ED50: Mus musculus, ip
Text: Table 5 gives data showing the effect of compound Ia on the survival time of mice subjected to hypobaric anoxia. In this test (M. Nakanishi et al., Life Sciences, 13, 467, 1973), compound Ia was intraperitoneally injected half an hour before the anoxia.

[4] = tested on: liver poisoning by praseodymium; assay: Antihepatotoxic activity, praseodymium test on the rat (i.v. administration); type: in vivo
Text: as §1
Silybin 11-phosphate was intravenously administered one hour before the praseodymium (10 mg/kg i.v.).

[5] = tested on: poisoning with phalloidine; assay: Antihepatotoxic activity, mouse poisoned with phalloidine (i.v. administration); type: in vivo; details: for Death Rate: 10 animals/group
Text: as §1
Silybin dihemisuccinate, when tested at a dose equal to 1/13 of the LD50 i.v. in the mouse, protected only 60% of the mice from death by phalloidine (Table 4).

[6] = Acute toxicity, rat; details: in vivo, iv
[7] = Acute toxicity, mouse; details: in vivo, iv
[8] = tested on: Rat; details: i.v., A. Desplaces et al., 1975; cited from earlier work
[9] = tested on: Mouse; details: i.v., A. Desplaces et al., 1975; cited from earlier work
[10] = rat, simultaneously with praseodymium
[11] = corresponds to mg/kg silybin, read-out: Survival Time ED50, corresponding silybin dose
[12] = half an hour before the anoxia, read-out: Survival Time ED50 (confidence limits p = 0.95)

COc1cc(C2Oc3cc(C4Oc5cc(O)cc(O)c5C(=O)C4O)ccc3OC2COP(=O)(O)O)ccc1O (stereo not drawn) [Silybin 11-phosphate (Ia), Silybin 11-phosphate]
Antihepatotoxic activity compared with silybin [1]: greater than that of silybin | ALAT, percentage variation relative to the praseodymium group ([1]; rat, 315 mg/kg): -78% | ASAT, percentage variation relative to the praseodymium group ([1]; rat, 315 mg/kg): -75% | Serum enzymes ALAT, m ± s.e. ([1]; rat, 315 mg/kg): 783.3 ± 304.6 U/L | Serum enzymes ASAT, m ± s.e. ([1]; rat, 315 mg/kg, simultaneously with praseodymium): 931.7 ± 299.0 U/L | Activity in counteracting the increase in the two serum transaminases compared with silybin [1, 10]: considerably more active than silybin alone | Activity in counteracting the increase in the two serum transaminases compared with silybin dihemisuccinate [1, 10]: as active as silybin dihemisuccinate | IC50 [2]: 85 µM | pIC50 [2]: 3.97 | Activity in destroying free radicals ([2]; in vitro, DPPH): significantly active in destroying free radicals | Anti-radical activity relative to silybin or succinylsilybin ([2]; more active than either silybin or succinylsilybin): about 3.5 times | Activity in prolonging the survival time [3]: active in prolonging the survival time | Activity in prolonging the survival time compared with succinylsilybin [3]: significantly more active than succinylsilybin | ED50 [3, 11]: 36.3 mg/kg | ED50 [3, 12]: 45.7 mg/kg | Pharmacological activity compared with silybin dihemisuccinate ([4]; intravenous, liver poisoning tests (praseodymium rat, phalloidine mouse)): much higher pharmacological activity than silybin dihemisuccinate | ALAT, percentage variation relative to the praseodymium group ([4]; rat, i.v., 6.32 mg/kg): -71% | ASAT, percentage variation relative to the praseodymium group ([4]; rat, i.v., 6.32 mg/kg): -54% | Liver Wt, m ± s.e. ([4]; rat, i.v., 6.32 mg/kg): 12.6 ± 0.5 g | Liver Wt, percentage variation relative to the praseodymium group ([4]; rat, i.v., 6.32 mg/kg): -10% | Liver triglycerides, m ± s.e. ([4]; rat, i.v., 6.32 mg/kg): 4792.4 ± 1068.8 | Liver triglycerides, percentage variation relative to the praseodymium group ([4]; rat, i.v., 6.32 mg/kg): -41% | Serum enzymes ALAT, m ± s.e. ([4]; rat, i.v., 6.32 mg/kg): 495.0 ± 244.6 U/L | Serum enzymes ASAT, m ± s.e. ([4]; rat, i.v., 6.32 mg/kg, 1 h before praseodymium 10 mg/kg i.v.): 877.0 ± 420.5 U/L | ALAT, percentage variation relative to the praseodymium group ([4]; rat, i.v., 15.8 mg/kg): -97% | ASAT, percentage variation relative to the praseodymium group ([4]; rat, i.v., 15.8 mg/kg): -95% | Liver Wt, m ± s.e. ([4]; rat, i.v., 15.8 mg/kg): 8.7 ± 0.2 g | Liver Wt, percentage variation relative to the praseodymium group ([4]; rat, i.v., 15.8 mg/kg): -30% | Liver triglycerides, m ± s.e. ([4]; rat, i.v., 15.8 mg/kg): 672.7 ± 100.5 | Liver triglycerides, percentage variation relative to the praseodymium group ([4]; rat, i.v., 15.8 mg/kg): -92% | Serum enzymes ALAT, m ± s.e. ([4]; rat, i.v., 15.8 mg/kg): 31.3 ± 3.2 U/L | Serum enzymes ASAT, m ± s.e. ([4]; rat, i.v., 15.8 mg/kg): 90.9 ± 8.9 U/L | Effect on praseodymium-induced increases ([4]; rat, i.v., dose equal to 1/26 of the LD50): inhibited the increase in activity of the two serum transaminases and the increase in the weight of the liver and the hepatic triglycerides | Activity in the praseodymium test ([4]; rat, i.v., dose of 1/65 of the LD50): Activity was maintained | Activity compared with silybin dihemisuccinate in the phalloidine test ([5]; 63 and 126 mg/kg i.v.): markedly superior to silybin dihemisuccinate | Percentage of deaths ([5]; i.v., 15.8 mg/kg): 0% | Death Rate ([5]; i.v., 15.8 mg/kg, 1 h before phalloidine 3 mg/kg i.p.): 0 | Protection from death by phalloidine ([5]; i.v., dose equal to 1/15 of the LD50 i.v.): protected all the mice from death

COc1cc(C2Oc3cc(C4Oc5cc(O)cc(O)c5C(=O)C4O)ccc3OC2COP(=O)(O)O)ccc1O (stereo not drawn) [Silybin 11-phosphate (Ia, sodium salt), sodium salt of silybin 11-phosphate]
LD50 [6]: 415 mg/kg | LD50 [7]: 235 mg/kg

COc1cc(C2Oc3cc(C4Oc5cc(O)cc(O)c5C(=O)C4OC(=O)CCC(=O)O)ccc3OC2COC(=O)CCC(=O)O)ccc1O (stereo not drawn) [Silybin dihemisuccinate, silybin dihemisuccinate]
ALAT, percentage variation relative to the praseodymium group ([1]; rat, 375 mg/kg): -75% | ASAT, percentage variation relative to the praseodymium group ([1]; rat, 375 mg/kg): -70% | Serum enzymes ALAT, m ± s.e. ([1]; rat, 375 mg/kg): 886.7 ± 395.1 U/L | Serum enzymes ASAT, m ± s.e. ([1]; rat, 375 mg/kg): 1118.3 ± 512.0 U/L | IC50 [2]: 322 µM | pIC50 [2]: 3.25 | ED50 [3, 11]: 97.3 mg/kg | ED50 [3, 12]: 108 mg/kg | ALAT, percentage variation relative to the praseodymium group ([4]; rat, i.v., 7.5 mg/kg): -21% | ASAT, percentage variation relative to the praseodymium group ([4]; rat, i.v., 7.5 mg/kg): -11% | Liver Wt, m ± s.e. ([4]; rat, i.v., 7.5 mg/kg): 12.6 ± 0.5 g | Liver Wt, percentage variation relative to the praseodymium group ([4]; rat, i.v., 7.5 mg/kg): -3% | Liver triglycerides, m ± s.e. ([4]; rat, i.v., 7.5 mg/kg): 6692.8 ± 738.3 | Liver triglycerides, percentage variation relative to the praseodymium group ([4]; rat, i.v., 7.5 mg/kg): -18% | Serum enzymes ALAT, m ± s.e. ([4]; rat, i.v., 7.5 mg/kg): 1366. ± 343.1 U/L | Serum enzymes ASAT, m ± s.e. ([4]; rat, i.v., 7.5 mg/kg): 1672.0 ± 292.8 U/L | ALAT, percentage variation relative to the praseodymium group ([4]; rat, i.v., 37.5 mg/kg): +64% | ASAT, percentage variation relative to the praseodymium group ([4]; rat, i.v., 37.5 mg/kg): +38% | Liver Wt, m ± s.e. ([4]; rat, i.v., 37.5 mg/kg): 12.6 ± 0.4 g | Liver Wt, percentage variation relative to the praseodymium group ([4]; rat, i.v., 37.5 mg/kg): +1% | Liver triglycerides, m ± s.e. ([4]; rat, i.v., 37.5 mg/kg): 7083.9 ± 747.5 | Liver triglycerides, percentage variation relative to the praseodymium group ([4]; rat, i.v., 37.5 mg/kg): -19% | Serum enzymes ALAT, m ± s.e. ([4]; rat, i.v., 37.5 mg/kg): 1988.3 ± 465.3 U/L | Serum enzymes ASAT, m ± s.e. ([4]; rat, i.v., 37.5 mg/kg): 2600.0 ± 570.9 U/L | ALAT, percentage variation relative to the praseodymium group ([4]; rat, i.v., 75 mg/kg): -65% | ASAT, percentage variation relative to the praseodymium group ([4]; rat, i.v., 75 mg/kg): -53% | Liver Wt, m ± s.e. ([4]; rat, i.v., 75 mg/kg): 12.1 ± 0.5 g | Liver Wt, percentage variation relative to the praseodymium group ([4]; rat, i.v., 75 mg/kg): -1% | Liver triglycerides, m ± s.e. ([4]; rat, i.v., 75 mg/kg): 9221.0 ± 910.4 | Liver triglycerides, percentage variation relative to the praseodymium group ([4]; rat, i.v., 75 mg/kg): +11% | Serum enzymes ALAT, m ± s.e. ([4]; rat, i.v., 75 mg/kg): 422.9 ± 85.6 U/L | Serum enzymes ASAT, m ± s.e. ([4]; rat, i.v., 75 mg/kg): 887.0 ± 63.1 U/L | Activity in the praseodymium test ([4]; rat, i.v., lower doses comparable with those of compound (Ia)): no activity | Dose for preventing praseodymium poisoning ([4]; rat, i.v., LD50 reported in the literature): 1/12 | LD50 [8]: 920(1) (906-940) mg/kg | LD50 [9]: 970(1) (931-1010) mg/kg | Percentage of deaths ([5]; i.v., 75.0 mg/kg): 40% | Death Rate ([5]; i.v., 75.0 mg/kg): 4 | Mice protected from death by phalloidine ([5]; i.v., dose equal to 1/13 of the LD50 i.v.): 60%

COc1cc(C2Oc3cc([C@H]4Oc5cc(O)cc(O)c5C(=O)[C@@H]4O)ccc3OC2CO)ccc1O (stereo partly drawn) [Silybin, silybin]
ALAT, percentage variation relative to the praseodymium group ([1]; rat, 250 mg/kg): +1% | ASAT, percentage variation relative to the praseodymium group ([1]; rat, 250 mg/kg): -2% | Serum enzymes ALAT, m ± s.e. ([1]; rat, 250 mg/kg): 3620 ± 795.8 U/L | Serum enzymes ASAT, m ± s.e. ([1]; rat, 250 mg/kg): 3680.2 ± 885.6 U/L | pIC50 [2]: 3.49
